Residues, ends and D or L forms follow the SMILES beside them.
Key:
[1] = test system: brain / BBB; assay: In vivo brain uptake, fluorescence microscopy of rat brain; set-up: species or system male Wistar rats; conditions: i.v., lower doses injected
Method: In vivo studies were performed in male Wistar rats housed under a 12 hours light-dark cycle with free access to food and water. The animals were allocated in five groups, each consisting of three rats. Three animal groups received a single i.v. administration of NBD-gH625 at a concentration of 10 µg, 20 µg, and 40 µg/100 g bw, respectively. Control group received vehicle while another group received gH-625 (40 µg/100 g bw). Both NBD-gH625 and gH625 were dissolved in phosphate-buffered saline. After 3.5 hours from the i.v. administration, the animals were anesthetized with Zoletil® (40 mg/100 g) and euthanized by decapitation. This study was carried out in strict accordance with recommendations in the European Guide for the Care and Use of Laboratory Animals. Every effort was made to minimize animal pain and suffering. All animal protocols were approved by the Committee on the Ethics of Animal Experiments of the University of Napoli Federico II (Italy) and the Italian Minister of Health. (Protocol number 2012/000180).
The ex-vivo fluorescence microscopy analysis was performed to evaluate the distribution of NBD-gH625 on both sides of the BBB. In order to evaluate if there is a linear relationship between slides fluorescence integrated density and the amount of the peptide, a calibration curve was obtained. In particular, increasing amounts of NBD-gH625 (0–30 µM) were spotted on microscope slides and images at 515 nm were acquired (See the Results section) and analysed as described below. Brains were removed from animals, sectioned sagittally in thick slices, washed in PBS, mounted on coverslips, stained with DAPI (4′–6 Diamidino-2-Phenylindole, Dilactate) (Invitrogen, Carlsbad, CA, USA) and analysed under Axioskop fluorescence microscope (Zeiss). Images, at least 10 field of view (800 × 700 μm each) for each experimental class, were acquired using an AxioCam MRc5 (Zeiss) with DAPI filter (λex 350 nm; λem 461 nm) and a fluorescein isothiocyanate filter (λex 488 nm; λem 515 nm).
To evaluate the distribution of NBD-gH625 on both sides of the BBB, we estimated the fluorescence inside the blood vessels (without discriminating between the amount present in the blood and that present in the endothelial cells) and outside the blood vessels in 10 images for each experimental class. In detail, to assess the NBD-gH625 that reached without crossing the BBB, we selected blood vessels as the region of interest (ROI) (inbound) and evaluated the fluorescence intensity; then, on the non-zero thresholded images, an inversion of selected ROI was carried out to obtain the complementary ROI to calculate the amounts of NBD-gH625 which crossed the BBB (outbound).
The morphology of blood vessels was easily identified and outlined; the images were calibrated by ImageJ Rodbard function; integrated density values were calculated within the outlines exclusively, to be considered as inside fluorescence. Then, the thresholded and outlined images, to exclude both blood vessels and background values, were used to calculate the integrated density as outside fluorescence.
To evaluate the effect of concentration on the systemic delivery of NBD-gH625, a fluorescence microscopy analysis was performed as previously reported.
Briefly, livers and brains were isolated and fixed for 24 hours in Bouin’s fixative (71% picric acid, 5% acetic acid, 24% formaldehyde) and embedded in paraffin wax (Carlo Erba, Milan, Italy). Tissue sections (10 μm of thickness) were incubated in 0.1% Sudan Black B dissolved in 70% ethanol for 20 minutes to reduce the tissues autofluorescence. The excess of Sudan Black B was removed by washing with Tris-buffered saline containing 0.02% Tween 20[30],[31]. Sections were stained with DAPI to counterstain nuclei, then mounted with a coverslip in glycerol/phosphate-buffered saline (1:1) and acquired using an AxioCam MRc5 with DAPI filter (λex 350 nm; λem 461 nm) and a fluorescein isothiocyanate filter (λex 488 nm; λem 515 nm). […]

[2] = Circular dichroism spectroscopy; format: physicochemical; conditions: CD, peptide 8 µM, P/L 0.08; for Helix content: [θ]222, according to Chakrabartty et al., lipid 100 µM, 5 mM phosphate buffer, room temperature
Method: The samples were vortexed and lyophilized overnight.
(§1) CD spectra were recorded at room temperature on a Jasco J-715 spectropolarimeter in a 0.1 cm quartz cell. The spectra are an average of 3 consecutive scans from 260 to 190 nm, recorded with a band width of 3 nm, a time constant of 16 s, and a scan rate of 10 nm/min. Spectra were recorded and corrected for the blank. Mean residue ellipticities (MRE) were calculated as MRE = Obsd/lcn (Obsd is the ellipticity measured in millidegrees, l is the path length of the cell in cm, c is the peptide concentration in mol/l, and n is the number of amino acid residues in the peptide). A solution of 8 µM of peptide with SUVs, was prepared as previously described. […] The percentage of helix was calculated from measurements of their mean residue ellipticity at 222 nm[44]. We used [ϑ]222 values of 0 and −40.000(1–2.5/n) deg cm^2 dmol^−1 per amino acid residue for 0% and 100% helicity; n is the number of amino acid residues. The ratio of the ellipticities at 222 and 208 nm were used to discriminate between monomeric and oligomeric states of helices. The experiment was performed before and after centrifugation to remove eventual precipitated peptides from solution.

[3] = set-up: method as in PMID 25792823; conditions: after 3.5 h of incubation in serum; cited from earlier work
[4] = Tryptophan quenching by acrylamide in buffer; format: physicochemical; conditions: no LUVs, peptide 4 µM, acrylamide up to 0.2 M, λex 295 nm, λem 340 nm
Method: A solution containing 4 µM of gH625 in the absence or presence of LUVs at a peptide/lipid molar ratio of 1/200, was titrated with the water-soluble quencher acrylamide (4 M mother solution). The maximal concentration of acrylamide in the samples is 0.2 M. Fluorescence was measured with λex 295 nm and λem 340 nm[43]. The data were analysed with the Stern-Volmer equation[43], F0/F = 1 + Ksv [Q], where F0 and F represent the fluorescence intensities in the absence and the presence of the quencher (Q), respectively. The Ksv is the Stern-Volmer quenching constant, and is correlated to the accessibility of the tryptophan residue to acrylamide. […] Ksv is thus determined by the amount of non-lipid-associated free peptide as well as the peptide fraction located on the surface of the bilayer.
The observed changes in the tryptophan emission upon binding to lipid vesicles indicate gH625 insertion into the hydrophobic region of the bilayers. We determined the accessibility of the tryptophan residues of membrane bound peptides towards acrylamide, a neutral, water-soluble quencher, which is unable to penetrate into the hydrophobic core of the lipid bilayer. In fact, tryptophan residues more deeply buried inside the membrane are less strongly quenched.

[5] = Circular dichroism spectroscopy in aqueous solution; format: physicochemical; conditions: room temperature
Method: as §1

CC[C@H](C)[C@H](NC(=O)[C@H](CC(C)C)NC(=O)[C@H](C)NC(=O)[C@H](CC(N)=O)NC(=O)[C@H](Cc1ccc(O)cc1)NC(=O)[C@H](Cc1c[nH]cn1)NC(=O)[C@H](C)NC(=O)[C@H](Cc1c[nH]c2ccccc12)NC(=O)[C@H](CCCNC(=N)N)NC(=O)[C@@H](NC(=O)[C@H](CC(C)C)NC(=O)[C@@H](NC(=O)[C@H](CO)NC(=O)[C@H](C)NC(=O)[C@H](CC(C)C)NC(=O)CNC(=O)[C@@H](N)Cc1c[nH]cn1)[C@@H](C)O)[C@@H](C)O)C(=O)N[C@@H](CCCNC(=N)N)C(=O)N[C@@H](C)C(=O)N[C@@H](Cc1ccccc1)C(N)=O [gH625] (H-HGLASTLTRWAHYNALIRAF-NH2)
Percentage of delivered peptide, brain compared to liver [1]: higher percentages of delivered peptide compared to the liver
Helix content ([2]; BBB mimicking SUVs): 58%
Helix content ([2]; liver mimicking SUVs): 40%
Ratio θ222/θ208 (monomeric < 0.8, oligomeric > 1.0) ([2]; BBB mimicking SUVs): approximately 0.68
Ratio θ222/θ208 (monomeric < 0.8, oligomeric > 1.0) ([2]; liver mimicking SUVs): ~0.45
Serum stability, intact peptide [3]: significant amount of intact peptide
Stern-Volmer quenching constant (Ksv) [4]: 10.21 ± 0.15 M⁻¹
Secondary structure by CD [5]: mainly random coil structure
